PubChem BioAssay (NCI)
“And” between values parts separate entries of the source, which are not always exact repeats. Identical values can stand only once.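 Dose response: 5 concentrations. Exposure: 48 h. Format: 96-well plates. Endpoint: linear interpolation; highest concentration if not reached. GI50 = concentration required for 50% inhibition of growth. TGI: total growth inhibition.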

Key:
Assay in all cases: inhibition of tumour cell growth, NCI panel, 48 h
CCRF-CEM leukemia = tested on: CCRF-CEM leukemia
MALME-3M melanoma = tested on: MALME-3M melanoma
NCI-H522 lung = tested on: NCI-H522 lung
NCI-H460 lung = tested on: NCI-H460 lung
SK-MEL-28 melanoma = tested on: SK-MEL-28 melanoma
BT-549 breast = tested on: BT-549 breast
TK-10 renal = tested on: TK-10 renal
A549 NSCLC = tested on: A549 NSCLC
MDA-MB-435 = tested on: MDA-MB-435
NCI/ADR-RES ovarian = tested on: NCI/ADR-RES ovarian

Compound	GI50 (CCRF-CEM leukemia) [µM]	TGI (CCRF-CEM leukemia) [µM]	GI50 (MALME-3M melanoma) [µM]	TGI (MALME-3M melanoma) [µM]	GI50 (NCI-H522 lung) [µM]	TGI (NCI-H522 lung) [µM]	GI50 (NCI-H460 lung) [µM]	TGI (NCI-H460 lung) [µM]	GI50 (SK-MEL-28 melanoma) [µM]	TGI (SK-MEL-28 melanoma) [µM]	GI50 (BT-549 breast) [µM]	TGI (BT-549 breast) [µM]	GI50 (TK-10 renal) [µM]	TGI (TK-10 renal) [µM]	GI50 (A549 NSCLC) [µM]	TGI (A549 NSCLC) [µM]	GI50 (MDA-MB-435) [µM]	TGI (MDA-MB-435) [µM]	GI50 (NCI/ADR-RES ovarian)	TGI (NCI/ADR-RES ovarian) [µM]
CCc1cccc(CC)c1/C=C/c1cncc(C(=O)NC)c1	0.765	> 25	10.9	> 25	8.82	> 23.9	9.97	> 25	13.4	> 25	8.95	> 25	> 18.2	> 25	9.3	> 25	2.85	10.5	6.71 µM	> 25
COc1ccc(C(=O)C[C@]2(O)C(=O)Nc3c(Cl)ccc(Cl)c32)cc1	0.563	> 100	0.503	> 100	0.317		0.389	> 53.5	6.54	> 100	0.59	> 72.9	> 29.4	> 100	0.766	> 100	0.128	0.396	0.379 µM	
CC(C)(CO)N=Cc1ccccc1[O-].CC(C)(CO)N=Cc1ccccc1[O-].[Co+2]	5.86	68.2	49.5	> 100	30.4	90.5	> 100	> 100	58.6	> 100	14.5	> 63.4	81.3	> 100	> 100	> 100	38.4	> 100	> 100 µM	> 100
CC[C@@]1(O)C(=O)OCc2c1cc1n(c2=O)Cc2cc3c(N)cccc3nc2-1	0.00158			1.88	0.0234	1.35	0.00439	0.462		16.3	0.0394	5.26		38.2	0.0701	2.31		2.16	0.0158 µM and < 0.0151 µM	2.08
O=C(O)C1C2C=CC(O2)C1C(=O)Nc1ncccn1 (stereo not drawn)		> 100		> 100		> 100		> 100		> 100		> 100		> 100		> 100		> 100		> 100
C=CC(=O)Nc1cccc(Nc2nc(Nc3ccc(OCCOC(F)F)cc3)ncc2F)c1	5.17	94	2.49	35.1	1.88	7.44	2.74	35.6	7.36	> 100	1.36	11.6	0.515	2.93	3.56	20.2	2.21	7.22	2.48 µM	19.7
NC(=O)c1cc(I)ccc1NC(=O)COc1ccccc1	0.463	> 100	7.28	> 100	0.508	12.9	0.433	> 100	2.57	> 100	0.644	31.5	5.38	50.9	0.63	> 100	0.107	0.359	0.329 µM	5.43
